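96-well plates; 48 h exposure; 5 concentrations. Endpoints by linear interpolation between flanking doses. Not reached: highest tested concentration assigned. The concentration for full growth arrest is given as TGI.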
Assays:
Test in all cases: NCI anticancer screen, dose series, 48 h
HCT-116 colon = system: HCT-116 colon
KM12 colon = system: KM12 colon
SNB-75 CNS = system: SNB-75 CNS
MALME-3M melanoma = system: MALME-3M melanoma
OVCAR-4 ovarian = system: OVCAR-4 ovarian
UO-31 renal = system: UO-31 renal
UACC-62 melanoma = system: UACC-62 melanoma
UACC-257 melanoma = system: UACC-257 melanoma
HCT-15 colon = system: HCT-15 colon
786-0 renal = system: 786-0 renal

SMILES | TGI (HCT-116 colon) [µM] | TGI (KM12 colon) [µM] | TGI (SNB-75 CNS) [µM] | TGI (MALME-3M melanoma) [µM] | TGI (OVCAR-4 ovarian) [µM] | TGI (UO-31 renal) [µM] | TGI (UACC-62 melanoma) [µM] | TGI (UACC-257 melanoma) [µM] | TGI (HCT-15 colon) [µM] | TGI (786-0 renal) [µM]
CC1(C)OC[C@@H](O)[C@H](C#N)CO1 | > 100 | > 100 | > 100 | > 100 | > 100 | > 100 | > 100 | > 100 | > 100 | > 100
CCCCCCCCCCCC[S+](C)C | 20.8 | 14.3 | 16.6 | 22.4 | 18.8 | 27.2 | 21.9 | 17.4 | 53.8 | 13.3
